# Assay results taken from PubChem BioAssay (NCI).
#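 Cultured in 96-well plates, cells were exposed to test compound for 48 hours across five concentrations. Definition used: TGI = concentration required for complete inhibition of growth.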
# Legend:
# Assay in all cases: NCI tumour cell line growth inhibition, 48 h
# COLO 205 colon = test system: COLO 205 colon
# A549 NSCLC = test system: A549 NSCLC
# UO-31 renal = test system: UO-31 renal
# NCI-H522 lung = test system: NCI-H522 lung
# DMS 114 small cell lung = test system: DMS 114 small cell lung
# RXF-631 renal = test system: RXF-631 renal
# LXFL 529 NSCLC = test system: LXFL 529 NSCLC
# CAKI-1 renal = test system: CAKI-1 renal
# M19-MEL melanoma = test system: M19-MEL melanoma
# SK-OV-3 ovarian = test system: SK-OV-3 ovarian
# HCT-116 colon = test system: HCT-116 colon
# SR leukemia = test system: SR leukemia
# 786-0 renal = test system: 786-0 renal
# MALME-3M melanoma = test system: MALME-3M melanoma
# SF-539 CNS = test system: SF-539 CNS
# SK-MEL-5 melanoma = test system: SK-MEL-5 melanoma
# CCRF-CEM leukemia = test system: CCRF-CEM leukemia
# EKVX NSCLC = test system: EKVX NSCLC
# HL-60(TB) leukemia = test system: HL-60(TB) leukemia
# HT29 colon = test system: HT29 colon
# HOP-62 NSCLC = test system: HOP-62 NSCLC
# RPMI-8226 leukemia = test system: RPMI-8226 leukemia
# UACC-62 melanoma = test system: UACC-62 melanoma
# SK-MEL-2 melanoma = test system: SK-MEL-2 melanoma
# DMS 273 small cell lung = test system: DMS 273 small cell lung
# OVCAR-4 ovarian = test system: OVCAR-4 ovarian
# IGROV1 ovarian = test system: IGROV1 ovarian
# SNB-19 CNS = test system: SNB-19 CNS
# SF-268 CNS = test system: SF-268 CNS
# OVCAR-3 ovarian = test system: OVCAR-3 ovarian
# XF 498 CNS = test system: XF 498 CNS
# SNB-75 CNS = test system: SNB-75 CNS
# A498 renal = test system: A498 renal
# HCC-2998 colon = test system: HCC-2998 colon
# SN12C renal = test system: SN12C renal
# SF-295 CNS = test system: SF-295 CNS
# DLD-1 colon = test system: DLD-1 colon
# KM12 colon = test system: KM12 colon
# TK-10 renal = test system: TK-10 renal
# UACC-257 melanoma = test system: UACC-257 melanoma
# MOLT-4 leukemia = test system: MOLT-4 leukemia
# NCI-H23 lung = test system: NCI-H23 lung
# HOP-92 NSCLC = test system: HOP-92 NSCLC
# SNB-78 CNS = test system: SNB-78 CNS
# SW-620 colon = test system: SW-620 colon
# K-562 leukemia = test system: K-562 leukemia
# OVCAR-8 ovarian = test system: OVCAR-8 ovarian
# SK-MEL-28 melanoma = test system: SK-MEL-28 melanoma
# M14 melanoma = test system: M14 melanoma
compound,measurement,setting,value
O=C(c1ccncc1)n1nc(-c2ccccc2)c(N=Nc2ccccc2[N+](=O)[O-])c1-c1ccccc1,TGI,COLO 205 colon,> 100 µM
same,TGI,A549 NSCLC,> 100 µM
same,TGI,UO-31 renal,79.9 µM
same,TGI,NCI-H522 lung,> 100 µM
same,TGI,DMS 114 small cell lung,> 100 µM
same,TGI,RXF-631 renal,> 100 µM
same,TGI,LXFL 529 NSCLC,> 100 µM
same,TGI,CAKI-1 renal,> 100 µM
same,TGI,M19-MEL melanoma,> 100 µM
same,TGI,SK-OV-3 ovarian,> 100 µM
same,TGI,HCT-116 colon,> 100 µM
same,TGI,SR leukemia,> 100 µM
same,TGI,786-0 renal,> 100 µM
same,TGI,MALME-3M melanoma,> 100 µM
same,TGI,SF-539 CNS,> 100 µM
same,TGI,SK-MEL-5 melanoma,> 100 µM
same,TGI,CCRF-CEM leukemia,> 100 µM
same,TGI,EKVX NSCLC,> 100 µM
same,TGI,HL-60(TB) leukemia,> 100 µM
same,TGI,HT29 colon,> 100 µM
same,TGI,HOP-62 NSCLC,> 100 µM
same,TGI,RPMI-8226 leukemia,> 100 µM
same,TGI,UACC-62 melanoma,> 100 µM
same,TGI,SK-MEL-2 melanoma,> 100 µM
same,TGI,DMS 273 small cell lung,> 100 µM
same,TGI,OVCAR-4 ovarian,> 100 µM
same,TGI,IGROV1 ovarian,> 100 µM
same,TGI,SNB-19 CNS,> 100 µM
same,TGI,SF-268 CNS,> 100 µM
same,TGI,OVCAR-3 ovarian,> 100 µM
same,TGI,XF 498 CNS,> 100 µM
same,TGI,SNB-75 CNS,> 100 µM
same,TGI,A498 renal,> 100 µM
same,TGI,HCC-2998 colon,> 100 µM
same,TGI,SN12C renal,> 100 µM
same,TGI,SF-295 CNS,> 100 µM
same,TGI,DLD-1 colon,> 100 µM
same,TGI,KM12 colon,> 100 µM
same,TGI,TK-10 renal,> 100 µM
same,TGI,UACC-257 melanoma,> 100 µM
same,TGI,MOLT-4 leukemia,> 100 µM
same,TGI,NCI-H23 lung,> 100 µM
same,TGI,HOP-92 NSCLC,> 100 µM
same,TGI,SNB-78 CNS,> 100 µM
same,TGI,SW-620 colon,> 100 µM
same,TGI,K-562 leukemia,> 100 µM
same,TGI,OVCAR-8 ovarian,> 100 µM
same,TGI,SK-MEL-28 melanoma,> 100 µM
same,TGI,M14 melanoma,> 100 µM
